The values below come from patent US6630612B2, “5-HT3 receptor assay using transgenic mammal” (University of New Mexico, priority 1997, dated 2003).

Experiment [1] deals with 5-HT3 receptor. Nature of the experiment: Homogenate saturation binding with 3H-GR65630 in cortical membranes of transgenic and B6SJL/F1 control mice. Also noted: species or system mouse. Particulars: cortical membranes, B6SJL/F1 control mice. As to the method: (§1) For homogenate binding studies, cortices and cerebelli were removed and homogenized by hand in ice cold Hepes buffer (50 mM, pH 7.5) and centrifuged at 500 g for 5 minutes at 4° C. Liver, lung, heart, spleen, kidney, small intestines, testes, and skeletal muscle (from hind limb) were homogenized with an Omni tissue chopper. Membranes were pelleted by centrifugation at 20,000 g for 20 minutes at 4° C. and the pellets washed twice before suspension to 3 mg/ml in a buffer containing 145 mM NaCl, 5 mM KCl, 1, mM MgCl2, 1 mM CaCl2, 10 mM glucose, and 10 mM TRIS, pH 7.5. Saturation curves were carried out with 0.0125-25 nM ^3H-GR65630 at 37° C. for 30 minutes with 300 μg total protein. Incubation was terminated by dilution with ×10 volume (5 ml) of ice-cold buffer followed by rapid filtration onto Whatman GF/B filters. Filters were washed twice with 5 ml ice-cold buffer and counted by scintillation counting in EcoLite (ICN) scintillation cocktail. Non-specific binding (NSB) was determined with 0.125-256 μM tropisetron. Displacement binding was carried out the same as saturation binding except with 1 nM ^3H-GR65630 and NSB defined with 10 μM tropisetron. Protein concentrations were determined by Folin phenol reagent (Lowry et al., J. Biol. Chem. 193: 256-275, 1951).

The target of experiment [2] is T1, 5-HT3 receptor (Mus musculus, UniProt P23979).
T1 construct: cortices and cerebelli were removed and homogenized by hand in ice cold Hepes buffer; from tissue; host or cells: Washed membranes from cortex, cerebellum, liver, lung, heart, spleen, kidney, small intestine, testis and skeletal muscle of transgenic and B6SJL/F1 control mice
T1 sequence (P23979 24-489): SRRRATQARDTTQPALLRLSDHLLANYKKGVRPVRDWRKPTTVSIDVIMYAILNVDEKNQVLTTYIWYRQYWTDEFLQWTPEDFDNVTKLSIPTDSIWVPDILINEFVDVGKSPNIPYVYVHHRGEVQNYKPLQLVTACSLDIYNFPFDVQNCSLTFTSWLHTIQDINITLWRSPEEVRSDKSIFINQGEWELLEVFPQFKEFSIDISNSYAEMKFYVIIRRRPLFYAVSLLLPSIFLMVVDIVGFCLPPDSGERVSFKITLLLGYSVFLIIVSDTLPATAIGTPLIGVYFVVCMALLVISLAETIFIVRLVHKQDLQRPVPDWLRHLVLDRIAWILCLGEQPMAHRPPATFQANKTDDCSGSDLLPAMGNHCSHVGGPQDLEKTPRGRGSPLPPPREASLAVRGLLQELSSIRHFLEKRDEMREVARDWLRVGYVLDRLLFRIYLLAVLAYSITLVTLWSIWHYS
The description is as above. The protocol:
as §1

In experiment [3] the test system is 5-HT3 receptor. Nature of the experiment: Specific binding with 3H-GR65630 in membranes from various tissues of transgenic and B6SJL/F1 control mice. Also noted: species or system mouse. As to the method:
as §1

Experiment [4] has as its target T1, 5-HT3 receptor. The experiment is described as above. The settings on record: Cortex membranes, transgenic mice. The protocol: as §1
Where [5] appears, read: cortical membranes, 5-HT3 transgenic mice.

SMILES strings stand for the structures. Several values for one entry are separate records, joined by “and”; a condition that tells them apart may be missing. Identical values can stand only once.

With `Cc1[nH]cnc1CCC(=O)c1cn(C)c2ccccc12` [^3H-GR65630], the Bmax was 21 fmol/mg protein and 21±10 fmol/mg protein in the experiment on 5-HT3 receptor [1]; 2155 fmol/mg protein and 2155±129 fmol/mg protein at 5-HT3 receptor [2] (setting [5]); 2.5 pmol/mg protein at 5-HT3 receptor [2] (transgenic mice membranes). Also, the Kd amounted to 1.6 ± 2.3 nM at 5-HT3 receptor [1] (n=3 (FIG. 2 legend, unit inferred)) and 1.7 nM on 5-HT3 receptor [2] (setting [5]). In addition, the “Hill no. (Hill plot slope)” value at 5-HT3 receptor [2] (setting [5]) was found to be 1.0. The “Specific binding (means ± SEM)” value amounted to 7.2 ± 2.9 fmol/mg protein in the experiment on 5-HT3 receptor [3] (Cortex membranes, B6SJL/F1 control mice); 0.25 ± 5.4 fmol/mg protein in the experiment on 5-HT3 receptor [3] (Heart membranes, B6SJL/F1 control mice); 3.9 ± 1.8 fmol/mg protein with 5-HT3 receptor [3] (Heart membranes, transgenic mice); 3.9 ± 3.1 fmol/mg protein in the experiment with 5-HT3 receptor [3] (Kidney membranes, B6SJL/F1 control mice); 16.9 ± 8.0 fmol/mg protein with 5-HT3 receptor [3] (Kidney membranes, transgenic mice); 2.7 ± 4.1 fmol/mg protein in the experiment on 5-HT3 receptor [3] (Lung membranes, transgenic mice). For the same compound, the “Specific binding (means ± SEM)” value amounted to 2.7 ± 0.4 fmol/mg protein in the experiment with 5-HT3 receptor [3] (Skeletal muscle membranes, B6SJL/F1 control mice); 8.0 ± 2.7 fmol/mg protein with 5-HT3 receptor [3] (Skeletal muscle membranes, transgenic mice); 26.6 ± 11.0 fmol/mg protein in the experiment on 5-HT3 receptor [3] (Small intestines membranes, B6SJL/F1 control mice); 26.0 ± 7.7 fmol/mg protein in the experiment on 5-HT3 receptor [3] (Small intestines membranes, transgenic mice); 1.7 ± 3.9 fmol/mg protein in the experiment with 5-HT3 receptor [3] (Spleen membranes, B6SJL/F1 control mice); 8.2 ± 7.2 fmol/mg protein in the experiment with 5-HT3 receptor [3] (Spleen membranes, transgenic mice). Also, the “Specific binding (means ± SEM)” value on 5-HT3 receptor [4] is reported as 969.6 ± 190.5 fmol/mg protein.

Usually Kd stands for the concentration at which binding is half-saturated. A lower Kd goes with higher affinity.
